42 molecules from patent US10689398B2, “OXA-Diazaspiro compounds having activity against pain” (ESTEVE PHARMACEUTICALS, S.A., priority 2015, dated 2020) can be followed below.

Chain of human σ1 receptor (Q99720 whole entry): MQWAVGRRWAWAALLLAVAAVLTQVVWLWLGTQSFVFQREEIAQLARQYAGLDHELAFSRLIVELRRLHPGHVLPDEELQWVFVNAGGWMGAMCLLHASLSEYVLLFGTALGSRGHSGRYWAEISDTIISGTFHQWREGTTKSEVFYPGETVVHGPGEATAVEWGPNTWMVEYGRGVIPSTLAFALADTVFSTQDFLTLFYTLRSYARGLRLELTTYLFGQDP

The assay addresses human σ1 receptor (Homo sapiens (Human), UniProt Q99720). The assay can be described thus: Human σ1 receptor radioligand assay. The note with it: transfected HEK-293 membranes, [3H](+)-pentazocine radioligand. The class given is binding. The protocol: Human σ1 Receptor Radioligand Assay
To investigate binding properties of test compounds to human σ1 receptor, transfected HEK-293 membranes and [^3H](+)-pentazocine (Perkin Elmer, NET-1056), as the radioligand, were used. The assay was carried out with 7 μg of membrane suspension, 5 nM of [^3H](+)-pentazocine in either absence or presence of either buffer or 10 μM Haloperidol for total and non-specific binding, respectively. Binding buffer contained Tris-HCl 50 mM at pH 8. Plates were incubated at 37° C. for 120 minutes. After the incubation period, the reaction mix was then transferred to MultiScreen HTS, FC plates (Millipore), filtered and plates were washed 3 times with ice-cold 10 mM Tris-HCL (pH7.4). Filters were dried and counted at approximately 40% efficiency in a MicroBeta scintillation counter (Perkin-Elmer) using EcoScint liquid scintillation cocktail
What is called Ki is a dissociation constant, usually derived from enzyme kinetics or from competition with a known ligand. Read a low Ki as a stronger hold on the target. Turning to `c1ccc(CCN2CC3(CN(Cc4ccccc4)CC4(CC4)O3)C2)cc1` [Example 90, 10-benzyl-7-phenethyl-4-oxa-7,10-diazadispiro[2.1.3.3]undecane], the Ki was under 100 nM.

For the molecule `c1ccc(CCN2CCCC3(C2)CN(c2ccccc2)CC2(CC2)O3)cc1` (stereo not drawn) [Example 19, 7-phenethyl-12-phenyl-4-oxa-7,12-diazadispiro[2.1.5.3]tridecane], the inhibition constant Ki was under 100 nM.

On to `c1ccc(CN2CCCC3(C2)CN(c2ccccc2)CC2(CC2)O3)cc1` (stereo not drawn) [Example 23, 7-benzyl-12-phenyl-4-oxa-7,12-diazadispiro[2.1.5.3]tridecane], for which the Ki is under 500 nM.

`CC(C)CCN1CCCC2(C1)CN(c1ccccc1)CC1(CC1)O2` (stereo not drawn) [Example 20, 7-isopentyl-12-phenyl-4-oxa-7,12-diazadispiro[2.1.5.3]tridecane]: the Ki was under 100 nM.

The molecule `CN1CC2(CCCN(Cc3ccc(F)cc3)CC2)OC2(CC2)C1=O` (stereo not drawn) [Example 72, 8-(4-fluorobenzyl)-13-methyl-4-oxa-8,13-diazadispiro[2.1.6.3]tetradecan-14-one] returned an inhibition constant (Ki) of at least 500 nM.

`CC(C)N1CC2(CN(CCC(C)(C)C)C2)O[C@H](C)C1=O` [Example 45, (R)-2-(3,3-dimethylbutyl)-8-isopropyl-6-methyl-5-oxa-2,8-diazaspiro[3.5]nonan-7-one] came in with a Ki of at least 500 nM.

The molecule `CCN1C[C@@]2(CCCN(CCC(C)C)CC2)O[C@@H](C)C1=O` [Example 48, (2S,6S)-4-ethyl-9-isopentyl-2-methyl-1-oxa-4,9-diazaspiro[5.6]dodecan-3-one] displayed a Ki of at least 500 nM.

For the molecule `O=C(c1ccccc1)N1CC2(CCCN(Cc3ccccc3)CC2)OC2(CC2)C1` (stereo not drawn) [Example 56, (8-benzyl-4-oxa-8,13-diazadispiro[2.1.6.3]tetradecan-13-yl)(phenyl)methanone], the inhibition constant (Ki) is under 100 nM.

As for `CCN1C[C@]2(CCCN(CCC(C)C)CC2)O[C@H](C)C1=O` [Example 47, (2R,6R)-4-ethyl-9-isopentyl-2-methyl-1-oxa-4,9-diazaspiro[5.6]dodecan-3-one], the Ki was at least 500 nM.

`CCN1CC(C)(C)OC2(CCCN(Cc3ccccc3)CC2)C1` (stereo not drawn) [Example 86, 9-benzyl-4-ethyl-2,2-dimethyl-1-oxa-4,9-diazaspiro[5.6]dodecane] gave a Ki of under 100 nM.

Consider `CCN1CC2(CN(CC(C)C)C2)O[C@@H](C)C1=O` [Example 39, (S)-8-ethyl-2-isobutyl-6-methyl-5-oxa-2,8-diazaspiro[3.5]nonan-7-one], for which the inhibition constant Ki is at least 500 nM.

`CN1CC2(CCCN(Cc3ccccc3)CC2)OC2(CC2)C1=O` (stereo not drawn) [Example 71, 8-benzyl-13-methyl-4-oxa-8,13-diazadispiro[2.1.6.3]tetradecan-14-one]: the inhibition constant Ki is at least 500 nM.

In turn, `CCN1C[C@]2(CCCN(Cc3ccc(F)cc3)CC2)O[C@H](C)C1=O` [Example 64, (2R,6R)-4-ethyl-9-(4-fluorobenzyl)-2-methyl-1-oxa-4,9-diazaspiro[5.6]dodecan-3-one] had an inhibition constant (Ki) of at least 500 nM.

Take `CCN1CC2(CN(CCC(C)C)C2)O[C@@H](C)C1=O` [Example 37, (S)-8-ethyl-2-isopentyl-6-methyl-5-oxa-2,8-diazaspiro[3.5]nonan-7-one]: the Ki is at least 500 nM.

The molecule `CCN1CC2(CN(Cc3ccccc3)C2)OC2(CC2)C1=O` [Example 13, 7-benzyl-10-ethyl-4-oxa-7,10-diazadispiro[2.1.3.3]undecan-11-one] had a Ki of at least 500 nM.

Take `CCN1CC2(CN(CC(C)(C)C)C2)O[C@@H](C)C1=O` [Example 74, (S)-8-ethyl-6-methyl-2-neopentyl-5-oxa-2,8-diazaspiro[3.5]nonan-7-one]: the inhibition constant Ki was at least 500 nM.

Molecule `CCN1C[C@@]2(CCCN(Cc3ccc(C#N)cc3)CC2)O[C@@H](C)C1=O` [Example 69, 4-(((2S,6S)-4-ethyl-2-methyl-3-oxo-1-oxa-4,9-diazaspiro[5.6]dodecan-9-yl)methyl)benzonitrile] returned a Ki of at least 500 nM.

In the case of `c1ccc(CCN2CCCC3(CC2)CN(Cc2ccccc2)CC2(CC2)O3)cc1` (stereo not drawn) [Example 83, 13-benzyl-8-phenethyl-4-oxa-8,13-diazadispiro[2.1.6.3]tetradecane], the Ki was under 100 nM.

Molecule `CC(C)CN1CCCC2(C1)CN(Cc1ccccc1)CC1(CC1)O2` (stereo not drawn) [Example 81, 12-benzyl-7-isobutyl-4-oxa-7,12-diazadispiro[2.1.5.3]tridecane] had a Ki of under 100 nM.

As for `CC1(C)CN(C(=O)c2ccccc2)C[C@@]2(CCCN(CCc3ccccc3)CC2)O1` [Example 95, (S)-(2,2-dimethyl-9-phenethyl-1-oxa-4,9-diazaspiro[5.6]dodecan-4-yl)(phenyl)methanone], the inhibition constant (Ki) is under 500 nM.

With `CC(C)CCN1CC2(C1)CN(C(C)C)C(=O)[C@@H](C)O2` [Example 40, (R)-2-isopentyl-8-isopropyl-6-methyl-5-oxa-2,8-diazaspiro[3.5]nonan-7-one], the inhibitory constant (Ki) is at least 500 nM.

The molecule `CC(C)CN1CC2(C1)CN(C(C)C)C(=O)[C@H](C)O2` [Example 43, (S)-2-isobutyl-8-isopropyl-6-methyl-5-oxa-2,8-diazaspiro[3.5]nonan-7-one] displayed a Ki of at least 500 nM.

With `CC(C)CCN1CC2(C1)CN(C(C)C)C(=O)[C@H](C)O2` [Example 41, (S)-2-isopentyl-8-isopropyl-6-methyl-5-oxa-2,8-diazaspiro[3.5]nonan-7-one], the inhibitory constant (Ki) is at least 500 nM.

In turn, `CCN1C[C@]2(CCCN(Cc3ccccc3)CC2)O[C@H](C)C1=O` [Example 60, (2R,6R)-9-benzyl-4-ethyl-2-methyl-1-oxa-4,9-diazaspiro[5.6]dodecan-3-one] registered a Ki of at least 500 nM.

With `CCN1CC(C)(C)OC2(CCCN(CCc3ccccc3)CC2)C1` (stereo not drawn) [Example 87, 4-ethyl-2,2-dimethyl-9-phenethyl-1-oxa-4,9-diazaspiro[5.6]dodecane], the Ki was under 100 nM.

As for `CCN1CC2(CCCN(Cc3ccc(C#N)cc3)CC2)OC(C)(C)C1=O` (stereo not drawn) [Example 58, 4-((4-ethyl-2,2-dimethyl-3-oxo-1-oxa-4,9-diazaspiro[5.6]dodecan-9-yl)methyl)benzonitrile], the Ki is at least 500 nM.

`CC(C)CCN1CCCC2(C1)CN(Cc1ccccc1)CC1(CC1)O2` (stereo not drawn) [Example 80, 12-benzyl-7-isopentyl-4-oxa-7,12-diazadispiro[2.1.5.3]tridecane] registered an inhibition constant (Ki) of under 100 nM.

Molecule `CC(C)CCN1CCCC2(CC1)CN(Cc1ccccc1)CC1(CC1)O2` (stereo not drawn) [Example 84, 13-benzyl-8-isopentyl-4-oxa-8,13-diazadispiro[2.1.6.3]tetradecane] registered a Ki of under 100 nM.

For `CC(C)CCN1CCCC2(CC1)CN(c1ccccc1)C(=O)C1(CC1)O2` (stereo not drawn) [Example 10, 8-isopentyl-13-phenyl-4-oxa-8,13-diazadispiro[2.1.6.3]tetradecan-14-one], the Ki is under 100 nM.

Regarding `CCN1CC2(CN(CCC(C)C)C2)O[C@H](C)C1=O` [Example 36, (R)-8-ethyl-2-isopentyl-6-methyl-5-oxa-2,8-diazaspiro[3.5]nonan-7-one], the Ki was at least 500 nM.

As to `CC(C)CN1CCCC2(CC1)CN(C(=O)c1ccccc1)CC1(CC1)O2` (stereo not drawn) [Example 29, (8-isobutyl-4-oxa-8,13-diazadispiro[2.1.6.3]tetradecan-13-yl)(phenyl)methanone], the inhibitory constant (Ki) is under 500 nM.

On to `c1ccc(CCN2CCCC3(C2)CN(Cc2ccccc2)CC2(CC2)O3)cc1` (stereo not drawn) [Example 79, 12-benzyl-7-phenethyl-4-oxa-7,12-diazadispiro[2.1.5.3]tridecane], for which the Ki is under 100 nM.

The molecule `O=C(c1ccccc1)N1CC2(CC2)OC2(CCCN(CCc3ccccc3)C2)C1` (stereo not drawn) [Example 24, (7-phenethyl-4-oxa-7,12-diazadispiro[2.1.5.3]tridecan-12-yl)(phenyl)methanone] registered a Ki of at least 500 nM.

`CCN1CC2(CCCN(Cc3ccccc3)C2)OC2(CC2)C1=O` (stereo not drawn) [Example 11, 7-Benzyl-12-ethyl-4-oxa-7,12-diazadispiro[2.1.5.3]tridecan-13-one] had an inhibition constant Ki of at least 500 nM.

For `CC(C)CCN1CCCC2(C1)CN(c1ccccc1)C(=O)C1(CC1)O2` (stereo not drawn) [Example 8, 7-isopentyl-12-phenyl-4-oxa-7,12-diazadispiro[2.1.5.3]tridecan-13-one], the Ki was under 500 nM.

`O=C(c1ccccc1)N1CC2(CCCN(CCc3ccccc3)CC2)OC2(CC2)C1` (stereo not drawn) [Example 27, (8-phenethyl-4-oxa-8,13-diazadispiro[2.1.6.3]tetradecan-13-yl)(phenyl)methanone] showed an inhibition constant Ki of under 100 nM.

As to `CCN1C[C@]2(CCCN(Cc3ccccc3)CC2)O[C@@H](C)C1=O` [Example 62, (2S,6R)-9-benzyl-4-ethyl-2-methyl-1-oxa-4,9-diazaspiro[5.6]dodecan-3-one], the inhibition constant Ki is at least 500 nM.

Turning to `CCN1CC2(CCCN(CCC(C)C)CC2)OC2(CC2)C1=O` (stereo not drawn) [Example 4, 13-ethyl-8-isopentyl-4-oxa-8,13-diazadispiro[2.1.6.3]tetradecan-14-one], the Ki is under 100 nM.

Consider `CCN1CC(C)(C)OC2(CCCN(CCC(C)C)CC2)C1` (stereo not drawn) [Example 88, 4-ethyl-9-isopentyl-2,2-dimethyl-1-oxa-4,9-diazaspiro[5.6]dodecane], for which the inhibition constant (Ki) is under 100 nM.

For the molecule `CCN1CC2(CCCN(CCC(C)C)C2)OC2(CC2)C1=O` (stereo not drawn) [Example 1, 12-Ethyl-7-isopentyl-4-oxa-7,12-diazadispiro[2.1.5.3]tridecan-13-one], the inhibition constant Ki was at least 500 nM.

With `CC(C)N1CC2(CN(CCC(C)(C)C)C2)O[C@@H](C)C1=O` [Example 44, (S)-2-(3,3-dimethylbutyl)-8-isopropyl-6-methyl-5-oxa-2,8-diazaspiro[3.5]nonan-7-one], the inhibitory constant (Ki) was at least 500 nM.

Molecule `CC(C)OCCN1CCCC2(CC1)CN(C(=O)c1ccccc1)CC(C)(C)O2` (stereo not drawn) [Example 50, (9-(2-isopropoxyethyl)-2,2-dimethyl-1-oxa-4,9-diazaspiro[5.6]dodecan-4-yl)(phenyl)methanone] came in with a Ki of at least 500 nM.
